Data reported in the supplement of paper PMC10307832.

Tests used:
Assay in all cases: relative viability (nuclei count vs DMSO), 5 days (fraction); higher = more cells survive
Wnt-C59 + Tozasertib = compound: CC1=NC=CC(=C1)C2=CC=C(C=C2)CC(=O)NC3=CC=C(C=C3)C4=CN=CC=C4 [Wnt-C59] + Cc1cc(Nc2cc(N3CCN(C)CC3)nc(Sc3ccc(NC(=O)C4CC4)cc3)n2)n[nH]1 [Tozasertib] (partner 0.1 µM)
In short: (§1)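 Relative viability is defined as nuclei in treated wells over nuclei in vehicle wells. Duplicate plates were run and medians reported. Lung cancer cell lines in 1536-well plates were dosed by pin tool one day after seeding, with one drug or with a fixed anchor-drug dose plus five library-drug doses (not always all listed) in √10 steps, and nuclei were counted after 5 days.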

Lapatinib + Bortezomib = compound: CS(=O)(=O)CCNCc1ccc(-c2ccc3ncnc(Nc4ccc(OCc5cccc(F)c5)c(Cl)c4)c3c2)o1 [Lapatinib] + CC(C)C[C@H](NC(=O)[C@H](Cc1ccccc1)NC(=O)c1cnccn1)B(O)O [Bortezomib] (partner 0.002 µM)
In short: as §1

Lapatinib + Luminespib = compound: CS(=O)(=O)CCNCc1ccc(-c2ccc3ncnc(Nc4ccc(OCc5cccc(F)c5)c(Cl)c4)c3c2)o1 [Lapatinib] + CCNC(=O)c1noc(-c2cc(C(C)C)c(O)cc2O)c1-c1ccc(CN2CCOCC2)cc1 [Luminespib] (partner 0.01 µM)
In short: as §1

Lapatinib + Olaparib = compound: CS(=O)(=O)CCNCc1ccc(-c2ccc3ncnc(Nc4ccc(OCc5cccc(F)c5)c(Cl)c4)c3c2)o1 [Lapatinib] + O=C(c1cc(Cc2n[nH]c(=O)c3ccccc23)ccc1F)N1CCN(C(=O)C2CC2)CC1 [Olaparib] (partner 8 µM)
In short: as §1

Cell Line	relative viability (Wnt-C59 + Tozasertib; first compound 0.001 µM)	relative viability (Wnt-C59 + Tozasertib; first compound 0.01 µM)	relative viability (Wnt-C59 + Tozasertib; first compound 0.03162 µM)	relative viability (Wnt-C59 + Tozasertib; first compound 0.1 µM)	relative viability (Lapatinib + Bortezomib; first compound 0.06325 µM)	relative viability (Lapatinib + Bortezomib; first compound 0.2 µM)	relative viability (Lapatinib + Bortezomib; first compound 0.6325 µM)	relative viability (Lapatinib + Bortezomib; first compound 2 µM)	relative viability (Lapatinib + Luminespib; first compound 0.02 µM)	relative viability (Lapatinib + Luminespib; first compound 0.06325 µM)	relative viability (Lapatinib + Luminespib; first compound 0.2 µM)	relative viability (Lapatinib + Luminespib; first compound 0.6325 µM)	relative viability (Lapatinib + Luminespib; first compound 2 µM)	relative viability (Lapatinib + Olaparib; first compound 0.06325 µM)	relative viability (Lapatinib + Olaparib; first compound 0.2 µM)	relative viability (Lapatinib + Olaparib; first compound 0.6325 µM)	relative viability (Lapatinib + Olaparib; first compound 2 µM)	relative viability (Lapatinib + Bortezomib; first compound 0.02 µM)	relative viability (Lapatinib + Olaparib; first compound 0.02 µM)
NCI-H1734	0.258	0.233	0.288	0.139	0.839	1.02	0.993	0.862	0.22	0.196	0.189	0.186	0.174	0.54	0.62	0.593	0.586		
NCI-H1666	0.649	0.674	0.566	0.576	0.619	0.848	0.877	0.378	0.869	0.955	0.922	0.725	0.502	0.776	0.743	0.703	0.719	0.761	0.761
BEN	0.478	0.474	0.497	0.501	0.783	0.637	0.781	0.608		0.564	0.229	0.402	0.417	1	1.07	1.01	0.837	0.665	1.13
ChaGo-K-1	0.221	0.233	0.242	0.223	1.04	0.863	0.956	0.738	0.636	0.448	0.603	0.563	0.57	0.471	0.478	0.431	0.396		0.418
SK-MES-1	0.94	0.913	0.944	0.824					0.738	0.665	0.625	0.482	0.326	0.699	0.569	0.464	0.221		0.726
NCI-H3122	0.409	0.386	0.401	0.377	1	0.965	0.972	1.02	0.103	0.0758	0.0797	0.0807	0.0854	0.576	0.595	0.627	0.558	0.927	0.582
NCI-H1563					0.741	0.826	0.902	0.834	0.538	0.509	0.537	0.461	0.474					0.952	
CAL-12T	0.47	0.335	0.349	0.263	0.765	0.822	0.743	0.649		0.236	0.477	0.235	0.35	0.745	0.71	0.599	0.556		0.703
NCI-H1975	0.789	0.705	0.776	0.744	0.358	0.407	0.405	0.32	0.256	0.122	0.239	0.212	0.206	0.771	0.772	0.76	0.503	0.467	0.85
NCI-H2009	0.805	0.798	0.72	0.726	0.968	1.06	1.04	1.08	0.953	1.09	1.08	0.931	0.984	0.712	0.694	0.696	0.567	0.754	0.666
LC-2-ad	0.403	0.45	0.478	0.434	0.936	0.994	1.14	0.96		0.865	1.2	0.988	0.942	0.796	0.704	0.675	0.694		
NCI-H647	0.448	0.27	0.167	0.179	0.708	1.11	1.13	0.871	0.119	0.309	0.169	0.32	0.14	0.412	0.506	0.523	0.489	0.909	0.536
HCC-78	0.492	0.404	0.504	0.441		0.463	0.407	0.297						0.519	0.926	0.814	0.846	0.546	
Calu-6					0.951	1.03	1.02	0.906						0.555	0.589	0.525	0.447	0.887	0.612
H3255	0.715	0.616	0.626	0.63	0.735	0.581	0.575	0.395	0.471	0.676	0.879	0.805	0.757	0.516	0.634	0.469	0.325	0.633	0.526
EBC-1					0.561	0.539	0.534	0.455						0.78	0.703	0.759	0.489	0.542	0.736
NCI-H1395	0.71	0.668	0.755	0.844					0.849	0.761	0.706	0.599	0.663	0.455	0.459	0.522	0.415		
PC-14	0.663	0.658	0.569	0.619	0.936	0.835	0.898	0.661		0.147	0.12	0.192	0.149	0.286	0.291	0.263	0.217	0.799	0.209
NCI-H522	0.63	0.566	0.578	0.651						1.09		1.03	0.794	0.467	0.575	0.572	0.518		
HOP-62	0.349	0.363	0.394	0.314	0.857	0.577	0.99	0.761	0.839	0.949	0.932	0.869	1.01	0.4	0.59	0.328	0.369		
NCI-H1623	0.426	0.401	0.415	0.434					0.429	0.437		0.456	0.408						
NCI-H2087	0.274	0.235	0.255	0.291	0.738	0.832	0.679	0.761		0.169	0.169	0.162	0.161	0.412	0.625	0.516	0.503	0.445	0.56

Cell Line	relative viability (Wnt-C59 + Tozasertib; first compound 0.001 µM)	relative viability (Wnt-C59 + Tozasertib; first compound 0.01 µM)	relative viability (Wnt-C59 + Tozasertib; first compound 0.03162 µM)	relative viability (Wnt-C59 + Tozasertib; first compound 0.1 µM)	relative viability (Lapatinib + Bortezomib; first compound 0.06325 µM)	relative viability (Lapatinib + Bortezomib; first compound 0.2 µM)	relative viability (Lapatinib + Bortezomib; first compound 0.6325 µM)	relative viability (Lapatinib + Bortezomib; first compound 2 µM)	relative viability (Lapatinib + Luminespib; first compound 0.02 µM)	relative viability (Lapatinib + Luminespib; first compound 0.06325 µM)	relative viability (Lapatinib + Luminespib; first compound 0.2 µM)	relative viability (Lapatinib + Luminespib; first compound 0.6325 µM)	relative viability (Lapatinib + Luminespib; first compound 2 µM)	relative viability (Lapatinib + Olaparib; first compound 0.06325 µM)	relative viability (Lapatinib + Olaparib; first compound 0.2 µM)	relative viability (Lapatinib + Olaparib; first compound 0.6325 µM)	relative viability (Lapatinib + Olaparib; first compound 2 µM)	relative viability (Lapatinib + Bortezomib; first compound 0.02 µM)	relative viability (Lapatinib + Olaparib; first compound 0.02 µM)
NCI-H441	0.691	0.646	0.691	0.566	0.628	0.45	0.379	0.657		0.299	0.278	0.282	0.322		0.48	0.486	0.559		0.689
NCI-H1755	0.647	0.528	0.646	0.534	0.919	0.997	0.984	0.874	0.421	0.423	0.349	0.579	0.378	0.837	0.885	0.882	0.815	0.807	0.855
EKVX	0.437	0.357	0.406	0.402	0.862	0.914	0.634	0.161	0.712	0.804	0.767	0.853	0.447	0.694	0.77	0.602	0.337	0.888	
IA-LM					0.788	0.893	0.88	0.839						0.855	0.778	0.886	0.843	0.787	0.789
A-427	0.217	0.183	0.211	0.243	0.953	1.05	0.901	0.976		0.751	0.96	0.959	1.1	0.733	0.918	0.759	0.527		0.744
NCI-H1299					1.04	1.02	1.01	0.996						0.99	0.93	0.967	0.965	1.05	0.952
NCI-H1993	0.607		0.515	0.633		0.871	0.889	0.627	0.824		0.737	0.749	0.476		0.901	0.965	0.661	0.88	0.961
NCI-H1651	0.918	0.537	0.761	0.744	0.93	0.819	0.859	0.963	0.712	0.672	0.935	0.695	0.712	0.183	0.181	0.197	0.178	0.994	0.193
LXF-289	0.22	0.221	0.182	0.194	0.931	0.981	1	0.929	0.709	0.459	0.603	0.603	0.65	0.97	1.04	1.04	0.998	0.972	1.06
NCI-H23	0.377	0.33	0.446	0.333		1.02	1.07	0.813			0.197	0.215	0.196		0.266	0.296	0.2		
NCI-H1793	0.309		0.302	0.345						0.33	0.174	0.158	0.143	0.363	0.598	0.537	0.449		
NCI-H2170	0.721	0.641	0.852	0.602					0.664	0.385	0.433	0.462	0.223	0.483	0.501	0.459	0.118		0.564
NCI-H1944	0.237	0.261	0.263	0.246					0.723	0.435	0.623	0.552	0.522	0.389	0.381	0.354	0.327		0.397
NCI-H358	0.108	0.0976	0.108	0.0887						0.159		0.255	0.173	0.476	0.385	0.377	0.205		0.535
HCC-366	0.156	0.102	0.111	0.124	1.03	1.06	0.992	0.935						0.411	0.38	0.38	0.251		
LK-2	0.165	0.173	0.189	0.18							0.174	0.211	0.177		0.78	0.702	0.859		0.598
NCI-H1703					0.313	0.317	0.24	0.32						0.489	0.392	0.595	0.383	0.316	0.312
A549														0.217	0.376	0.364	0.269		
NCI-H2342	0.643	0.416	0.53	0.624					0.579	0.607	0.665	0.692	0.703	0.405	0.398	0.433	0.348		0.406
NCI-H1792					0.718	0.922	0.923	1.02			0.413	0.403	0.255		0.377	0.342	0.351	0.892	
SW 900	0.538	0.502	0.557	0.589						0.176	0.17	0.164	0.175	0.78	0.574	0.864	0.56		
NCI-H1648	0.581	0.611	0.364	0.524										0.466	0.588	0.769	0.28		
